Experiments:
[1] = biological target: T1, rat microsomal oxido-squalene cyclase (Rattus norvegicus, UniProt P48450); assay: In vitro test to measure inhibition of oxido-squalene cyclase; assay type: biochemical; conditions: at a concentration of 0.1 μM; rat liver microsomes
T1 construct: Microsomes are prepared from rat liver according to methods known in the art; from tissue; host or cells: rat liver microsomes
T1 sequence (P48450 1-733): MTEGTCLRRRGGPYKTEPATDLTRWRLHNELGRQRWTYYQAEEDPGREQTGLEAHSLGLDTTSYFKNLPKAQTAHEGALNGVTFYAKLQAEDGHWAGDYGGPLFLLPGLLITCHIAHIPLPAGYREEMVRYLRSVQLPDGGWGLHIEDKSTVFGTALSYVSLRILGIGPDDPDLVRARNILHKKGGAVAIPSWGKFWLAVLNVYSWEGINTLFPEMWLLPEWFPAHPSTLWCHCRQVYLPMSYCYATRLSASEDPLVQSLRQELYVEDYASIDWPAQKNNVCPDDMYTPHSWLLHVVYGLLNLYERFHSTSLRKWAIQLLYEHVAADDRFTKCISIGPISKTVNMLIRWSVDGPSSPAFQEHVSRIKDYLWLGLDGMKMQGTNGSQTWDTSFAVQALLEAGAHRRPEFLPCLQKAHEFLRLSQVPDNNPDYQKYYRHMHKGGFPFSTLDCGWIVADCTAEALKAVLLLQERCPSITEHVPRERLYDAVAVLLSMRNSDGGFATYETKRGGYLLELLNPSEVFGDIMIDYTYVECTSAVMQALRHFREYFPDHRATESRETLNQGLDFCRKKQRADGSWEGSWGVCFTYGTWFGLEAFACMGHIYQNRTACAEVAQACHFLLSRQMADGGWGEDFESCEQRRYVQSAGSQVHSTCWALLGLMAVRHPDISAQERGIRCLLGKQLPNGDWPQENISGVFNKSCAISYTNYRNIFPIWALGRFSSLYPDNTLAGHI
Experimental: (a) In Vitro Test to Measure Inhibition of Oxido-Squalene Cyclase
This test measures the inhibition of microsomal oxido-squalene cyclase in vitro by compounds at set concentrations in the incubation medium.
Microsomes are prepared from rat liver according to methods known in the art, for example, the method described in published European Patent Application No 324,421 and stored in liquid nitrogen prior to assay. Assay vials are kept at 37° C. throughout the incubation. The microsomes typically contain 15-20 mg of protein per ml of microsomes. For assay, 1 ml of microsomes are diluted by the addition of 722 μl of 50 mM phosphate buffer pH 7.4.
Phosphate buffered Tween 80 (polyoxyethylene sorbitan […]) is prepared by adding 0.1 g Tween 80 to 100 ml of 50 mM phosphate buffer.
A stock solution of oxido-squalene is made up as a solution in ethanol (0.65 mg. ml.^−1). 18 μl of radio-labelled oxido-squalene (1 μCi.ml^−1) is evaporated to dryness under a stream of nitrogen and redissolved in 1 ml of ethanol and 1 ml of the stock solution of oxido-squalene is added.
The test compound is dissolved in dimethyl sulphoxide to give a 10^−4M stock solution. […]
The samples are then placed in a water bath at 80° C. for 2 hours to saponify. […] Reaction rate is measured as the conversion of oxido-squalene to lanosterol, and the effects of test compounds are expressed as an inhibition of this process.

[2] = tested on: rat cholesterol biosynthesis; assay: In vivo test to measure inhibition of oxido-squalene cyclase / cholesterol biosynthesis in the rat; conditions: dosed at 2 mg/kg, oral
Experimental: (b) In Vivo Test to Measure Inhibition of Oxido-Squalene Cyclase
The ability of a compound to inhibit oxido-squalene cyclase and/or inhibit cholesterol biosynthesis may be assessed by a routine laboratory procedure carried out in the rat. The test involves administration of the compound to rats on a reversed lighting regimen. Female rats (35-55 g) are housed in reverse lighting conditions (red light from 0200 h-1400 h) for a period of about 2 weeks prior to test. Animals are allowed free access to chow and drinking water throughout this period. At test, animals should weigh 100-140 g. The rats are dosed orally with the compound (typically 10-50 mg/kg) formulated in apolyethylene glycol/hydroxypropylmethyl cellulose mix. After 1 hour the rats are given […] sodium mevalonate (15 μCi/kg) intraperitoneally. Two hours after administration of the compound the rats are terminated and a piece of liver removed and weighed. The tissue is saponified at 80° C. for 2 hours in an ethanolic/potassium hydroxide solution (80% w/v aqueous KOH diluted 1:10 with ethanol). Water (2 ml) is added and the mixture extracted with iso-hexane (2×5 ml). The organic extracts are combined, evaporated to dryness under a stream of nitrogen and the residue is dissolved in a mixture of acetonitrile/iso-propanol (300 μl). […] The radio-label content of each fraction is assessed using a radio chemical flow detector. […]

| SMILES | melting point [°C] | inhibition of rat microsomal oxido-squalene cyclase [1] | inhibition of rat cholesterol biosynthesis [2] |
| --- | --- | --- | --- |
| O=C(C1CCN(S(=O)(=O)c2ccc(Br)cc2)CC1)N1CCC(c2ccncc2)CC1 | 154 to 155 | – | – |
| O=C(N1CCC(c2ccncc2)CC1)N1CCN(S(=O)(=O)c2ccc(Br)cc2)CC1 [Example 2] | – | about 94% | about 85% |

From patent US6391880B1, “Heterocyclic compounds useful as oxido-squalene cyclase inhibitors” (Zeneca Limited, priority 1997, dated 2002)
